Measurements as given in patent US20100168037A1 (priority 2002, published 2010).
Read-outs that look alike come from different tables or passages of the source. Where a SMILES comes first, the peptide text is derived from it. [ ]: non-standard residue; d: D form.

What was measured:
[1] = biological target: RCA60 (Ricinus communis, UniProt P02879); format: binding
[2] = mouse, in vivo
[3] = biological target: BoNT/B neurotoxin (Clostridium botulinum, UniProt P10844); format: binding
[4] = biological target: BoNT/A (Clostridium botulinum, UniProt P0DPI0); format: binding
Sequence of BoNT/A (P0DPI0 whole entry, looked up): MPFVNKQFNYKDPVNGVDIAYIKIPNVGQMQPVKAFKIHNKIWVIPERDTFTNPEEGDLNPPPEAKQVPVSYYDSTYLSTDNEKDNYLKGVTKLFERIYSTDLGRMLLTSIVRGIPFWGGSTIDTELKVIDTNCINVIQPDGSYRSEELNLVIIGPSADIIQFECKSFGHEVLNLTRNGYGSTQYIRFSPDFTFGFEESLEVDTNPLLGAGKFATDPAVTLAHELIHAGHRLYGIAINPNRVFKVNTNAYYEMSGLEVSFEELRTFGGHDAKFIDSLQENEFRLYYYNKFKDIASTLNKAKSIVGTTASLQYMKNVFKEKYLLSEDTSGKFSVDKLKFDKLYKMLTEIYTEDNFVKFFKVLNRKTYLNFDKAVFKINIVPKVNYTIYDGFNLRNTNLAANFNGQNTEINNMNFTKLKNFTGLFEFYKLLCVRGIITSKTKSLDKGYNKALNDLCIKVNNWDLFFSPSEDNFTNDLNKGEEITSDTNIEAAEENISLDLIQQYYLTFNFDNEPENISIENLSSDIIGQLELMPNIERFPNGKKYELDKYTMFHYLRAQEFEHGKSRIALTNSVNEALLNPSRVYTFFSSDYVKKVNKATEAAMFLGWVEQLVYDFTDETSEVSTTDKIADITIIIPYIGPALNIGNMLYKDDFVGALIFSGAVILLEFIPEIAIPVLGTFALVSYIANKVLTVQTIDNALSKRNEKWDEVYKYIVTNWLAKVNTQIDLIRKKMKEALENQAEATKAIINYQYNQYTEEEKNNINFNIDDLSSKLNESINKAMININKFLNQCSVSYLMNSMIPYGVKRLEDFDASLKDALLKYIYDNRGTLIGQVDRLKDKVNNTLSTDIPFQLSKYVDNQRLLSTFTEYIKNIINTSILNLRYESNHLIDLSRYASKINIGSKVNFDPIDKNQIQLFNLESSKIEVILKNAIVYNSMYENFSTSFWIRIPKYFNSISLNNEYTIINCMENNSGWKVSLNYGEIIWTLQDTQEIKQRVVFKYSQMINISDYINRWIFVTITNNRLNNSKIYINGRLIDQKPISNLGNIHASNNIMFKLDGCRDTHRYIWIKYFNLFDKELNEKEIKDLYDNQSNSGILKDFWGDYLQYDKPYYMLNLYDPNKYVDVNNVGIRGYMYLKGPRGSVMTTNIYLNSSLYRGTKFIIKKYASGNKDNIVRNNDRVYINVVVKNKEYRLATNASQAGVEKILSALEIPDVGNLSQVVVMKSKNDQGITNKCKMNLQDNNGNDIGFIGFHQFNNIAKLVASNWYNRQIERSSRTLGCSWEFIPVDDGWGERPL

[5] = biological target: BoNT/B (Clostridium botulinum, UniProt P10844); format: binding
Sequence of BoNT/B (P10844 whole entry, looked up): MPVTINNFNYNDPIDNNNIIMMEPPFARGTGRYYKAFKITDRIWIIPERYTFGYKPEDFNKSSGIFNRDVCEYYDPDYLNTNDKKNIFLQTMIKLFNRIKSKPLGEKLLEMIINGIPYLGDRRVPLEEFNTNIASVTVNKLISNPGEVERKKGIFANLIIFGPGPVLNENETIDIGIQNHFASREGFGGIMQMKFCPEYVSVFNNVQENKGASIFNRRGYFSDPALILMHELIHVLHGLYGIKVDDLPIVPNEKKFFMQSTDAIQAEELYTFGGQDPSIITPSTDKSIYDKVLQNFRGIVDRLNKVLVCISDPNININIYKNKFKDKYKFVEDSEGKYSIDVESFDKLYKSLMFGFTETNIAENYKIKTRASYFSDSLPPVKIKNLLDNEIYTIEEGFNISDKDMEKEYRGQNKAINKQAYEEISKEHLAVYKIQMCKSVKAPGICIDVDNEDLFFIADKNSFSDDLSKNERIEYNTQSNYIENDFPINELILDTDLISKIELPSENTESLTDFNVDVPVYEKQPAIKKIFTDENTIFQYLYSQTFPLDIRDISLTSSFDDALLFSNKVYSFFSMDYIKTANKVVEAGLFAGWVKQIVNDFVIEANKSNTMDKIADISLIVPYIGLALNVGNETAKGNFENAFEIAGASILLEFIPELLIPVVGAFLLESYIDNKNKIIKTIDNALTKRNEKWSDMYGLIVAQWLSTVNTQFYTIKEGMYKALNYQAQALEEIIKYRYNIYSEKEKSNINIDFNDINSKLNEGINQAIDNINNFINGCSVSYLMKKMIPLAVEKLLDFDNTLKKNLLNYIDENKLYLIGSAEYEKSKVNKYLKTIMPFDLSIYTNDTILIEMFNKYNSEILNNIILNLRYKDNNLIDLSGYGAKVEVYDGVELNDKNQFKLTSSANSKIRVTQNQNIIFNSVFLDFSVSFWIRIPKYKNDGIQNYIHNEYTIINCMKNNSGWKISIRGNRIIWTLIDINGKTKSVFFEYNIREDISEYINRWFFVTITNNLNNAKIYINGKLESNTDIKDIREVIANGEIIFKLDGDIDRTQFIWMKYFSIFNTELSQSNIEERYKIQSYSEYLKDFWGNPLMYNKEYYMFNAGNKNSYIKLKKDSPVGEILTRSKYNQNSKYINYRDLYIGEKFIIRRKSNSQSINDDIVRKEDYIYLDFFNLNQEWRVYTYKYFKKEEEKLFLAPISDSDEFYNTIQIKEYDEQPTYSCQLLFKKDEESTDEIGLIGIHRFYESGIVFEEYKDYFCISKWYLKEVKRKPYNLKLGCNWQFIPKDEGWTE

[6] = biological target: BotB complex (Clostridium botulinum, UniProt P10844); format: binding
[7] = biological target: T1, ConA (Canavalia ensiformis, Jack Bean Lectin) (Canavalia ensiformis, UniProt P02866); experiment: Bead library screen, binding of AP-ConA; conditions: peptide on TentaGel bead; AP / NBT-BCIP detection
T1 construct: purchased EY Laboratories (San Mateo, Calif.)

Sequence of BoNT/B neurotoxin (P10844 whole entry, looked up): as above

Structure (SMILES) | Saturation Concentration [1] | binding of BoNT/B to D-peptide bead (positive bead sequenced) [3] | binding of BoNT/A in the microplate binding assay [4] | binding of BoNT/B in the microplate binding assay [5] | further results
C[C@@H](N)C(=O)N[C@H](Cc1ccccc1)C(=O)N[C@H](Cc1ccc(O)cc1)C(=O)N[C@H](C)C(=O)N[C@H](Cc1ccc(O)cc1)C(=O)N[C@H](CCCCN)C(=O)N[C@H](CCCCN)C(=O)N[C@H](CCCCN)C(=O)O [AFYAY] (H-[dA][dF][dY][dA][dY][dK][dK][dK]-OH; C-terminus assumed) | 100 nM | – | – | – | –
NCCCC[C@@H](NC(=O)[C@@H](CCCCN)NC(=O)[C@@H](CCCCN)NC(=O)[C@@H](Cc1ccc(O)cc1)NC(=O)CNC(=O)[C@@H](Cc1c[nH]c2ccccc12)NC(=O)[C@@H](Cc1ccccc1)NC(=O)CN)C(=O)O [GFWGY] (H-G[dF][dW]G[dY][dK][dK][dK]-OH) | – | – | – | – | signs of toxicity ([2]; ip): no apparent toxicity; signs of toxicity ([2]; iv): no apparent toxicity
NCCCC[C@@H](NC(=O)[C@@H](CCCCN)NC(=O)[C@@H](CCCCN)NC(=O)[C@@H](Cc1ccc(O)cc1)NC(=O)[C@@H](Cc1c[nH]c2ccccc12)NC(=O)CNC(=O)[C@@H](Cc1ccccc1)NC(=O)CN)C(=O)O [GFGWY] (H-G[dF]G[dW][dY][dK][dK][dK]-OH; C-terminus assumed) | – | identified | bound | bound | –
C[C@@H](NC(=O)CN)C(=O)N[C@H](Cc1ccccc1)C(=O)N[C@H](Cc1ccccc1)C(=O)N[C@H](Cc1c[nH]c2ccccc12)C(=O)N[C@H](CCCCN)C(=O)N[C@H](CCCCN)C(=O)N[C@H](CCCCN)C(=O)O [GAFFW] (H-G[dA][dF][dF][dW][dK][dK][dK]-OH; C-terminus assumed) | – | identified | bound | bound | –
NCCCC[C@@H](NC(=O)[C@@H](CCCCN)NC(=O)[C@@H](CCCCN)NC(=O)[C@@H](Cc1ccc(O)cc1)NC(=O)[C@@H](Cc1ccccc1)NC(=O)[C@@H](Cc1ccccc1)NC(=O)[C@@H](Cc1ccccc1)NC(=O)CN)C(=O)O [GFFFY] (H-G[dF][dF][dF][dY][dK][dK][dK]-OH; C-terminus assumed) | – | binding | bound | bound | Saturation Concentration [4]: 3 to 4 nM; Kd ([4]; read-out: Estimated Kd): 1 to 2 nM; Saturation Concentration [5]: 3 to 4 nM; Kd ([5]; read-out: Estimated Kd): 1 to 2 nM; Saturation Concentration [6]: 2.3 nM; binding of BotB complex in the microplate binding assay [6]: bound; Kd ([6]; read-out: Estimated Kd): 0.022 nM
NCCCC[C@@H](NC(=O)[C@@H](CCCCN)NC(=O)[C@@H](CCCCN)NC(=O)[C@@H](Cc1ccccc1)NC(=O)[C@@H](Cc1ccccc1)NC(=O)[C@@H](Cc1ccc(O)cc1)NC(=O)[C@@H](Cc1ccccc1)NC(=O)CN)C(=O)O [GFYFF] (H-G[dF][dY][dF][dF][dK][dK][dK]-OH; C-terminus assumed) | 100 nM | binding | – | – | binding of ConA to D-peptide bead (positive bead sequenced) [7]: binding
